Source: PubChem BioAssay AID1963965 (Molecular Pharmacology Branch, DTP, NCI, 2024)
Blank lines part the entries; values can stand above or below the molecule they belong to.

System: 996289-038-R-J1-PDC spheroid viability
Assay: Anticancer human tumor 996289-038-R-J1-PDC patient-derived colon adenocarcinoma cell line growth inhibition [PI3K]
Conditions: spheroids with HUVEC and MSC; for IC50: curve of first compound; for viability, T/C: stronger effect = lower value
Outline: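 We assembled tumor spheroids that included a stromal compartment of HUVEC and MSCs, then exposed them to targeted agents alone and together with PI3K pathway inhibitors. Concentration series descended by half-log from clinically achievable Cmax levels. Viability served as the endpoint.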

[1] = second compound 0.0316 µM, first compound 0.0316 µM
[2] = second compound 0.0316 µM, first compound 0.1 µM
[3] = second compound 0.0316 µM, first compound 0.316 µM
[4] = second compound 0.0316 µM, first compound 1 µM
[5] = second compound 0.0316 µM, first compound 3.16 µM
[6] = second compound 0.0316 µM, first compound 10 µM
[7] = second compound 0.1 µM, first compound 0.0316 µM
[8] = second compound 0.1 µM, first compound 0.1 µM
[9] = second compound 0.1 µM, first compound 0.316 µM
[10] = second compound 0.1 µM, first compound 1 µM
[11] = second compound 0.1 µM, first compound 3.16 µM
[12] = second compound 0.1 µM, first compound 10 µM
[13] = second compound 0.316 µM, first compound 0.0316 µM
[14] = second compound 0.316 µM, first compound 0.1 µM
[15] = second compound 0.316 µM, first compound 0.316 µM
[16] = second compound 0.316 µM, first compound 1 µM
[17] = second compound 0.316 µM, first compound 3.16 µM
[18] = second compound 0.316 µM, first compound 10 µM
[19] = second compound 1 µM, first compound 0.0316 µM
[20] = second compound 1 µM, first compound 0.1 µM
[21] = second compound 1 µM, first compound 0.316 µM
[22] = second compound 1 µM, first compound 1 µM
[23] = second compound 1 µM, first compound 3.16 µM
[24] = second compound 1 µM, first compound 10 µM
[25] = second compound 0.00316 µM, first compound 0.0316 µM
[26] = second compound 0.00316 µM, first compound 0.1 µM
[27] = second compound 0.00316 µM, first compound 0.316 µM
[28] = second compound 0.00316 µM, first compound 1 µM
[29] = second compound 0.01 µM, first compound 0.0316 µM
[30] = second compound 0.01 µM, first compound 0.1 µM
[31] = second compound 0.01 µM, first compound 0.316 µM
[32] = second compound 0.01 µM, first compound 1 µM
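Note: spheroids exposed to compounds for seven days before viability read.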
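Throughout, for viability, T/C: luminescence used as a proxy for viable cell amount; percent viability relative to DMSO vehicle control as 100%.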

IC50 (second compound 0.0316 µM): 6.51 µM
IC50 (second compound 0.1 µM): 6.87 µM
IC50 (second compound 0.316 µM): 6.7 µM
IC50 (second compound 1 µM): 6.63 µM
IC50 (second compound 3.16 µM): 6.55 µM
IC50 (second compound 10 µM): 5.93 µM
SMILES: CCCS(=O)(=O)Nc1ccc(F)c(C(=O)c2c[nH]c3ncc(-c4ccc(Cl)cc4)cc23)c1F + CC(Nc1ncnc2nc[nH]c12)c1cc2cccc(Cl)c2c(=O)n1-c1ccccc1
viability, T/C [1]: 99.5%
viability, T/C [2]: 98.8%
viability, T/C [3]: 103%
viability, T/C [4]: 97.1%
viability, T/C [5]: 98.6%
viability, T/C [6]: 21.1%
viability, T/C [7]: 103%
viability, T/C [8]: 96.8%
viability, T/C [9]: 119%
viability, T/C [10]: 107%
viability, T/C [11]: 111%
viability, T/C [12]: 22.2%
viability, T/C [13]: 89.8%
viability, T/C [14]: 103%
viability, T/C [15]: 107%
viability, T/C [16]: 106%
viability, T/C [17]: 99.7%
viability, T/C [18]: 23.5%
viability, T/C [19]: 105%
viability, T/C [20]: 98.2%
viability, T/C [21]: 96.9%
viability, T/C [22]: 89%
viability, T/C [23]: 102%
viability, T/C [24]: 23.2%
viability, T/C (second compound 3.16 µM, first compound 0.0316 µM): 94.9%
viability, T/C (second compound 3.16 µM, first compound 0.1 µM): 95.4%
viability, T/C (second compound 3.16 µM, first compound 0.316 µM): 93.2%
viability, T/C (second compound 3.16 µM, first compound 1 µM): 85.6%
viability, T/C (second compound 3.16 µM, first compound 3.16 µM): 101%
viability, T/C (second compound 3.16 µM, first compound 10 µM): 24.2%
viability, T/C (second compound 10 µM, first compound 0.0316 µM): 87%
viability, T/C (second compound 10 µM, first compound 0.1 µM): 87.8%
viability, T/C (second compound 10 µM, first compound 0.316 µM): 88.3%
viability, T/C (second compound 10 µM, first compound 1 µM): 82.5%
viability, T/C (second compound 10 µM, first compound 3.16 µM): 99.6%
viability, T/C (second compound 10 µM, first compound 10 µM): 17.5%

IC50 (second compound 0.00316 µM): > 1 µM
IC50 (second compound 0.01 µM): > 1 µM
IC50 (second compound 0.0316 µM): > 1 µM
IC50 (second compound 0.1 µM): 0.0412 µM
IC50 (second compound 0.316 µM): < 0.00316 µM
IC50 (second compound 1 µM): < 0.00316 µM
SMILES: CCN1CCN(Cc2ccc(Nc3ncc(F)c(-c4cc(F)c5nc(C)n(C(C)C)c5c4)n3)nc2)CC1 + COc1c(OCCCN2CCOCC2)ccc2c3n(c(=NC(=O)c4cnc(N)nc4)nc12)CCN3
viability, T/C (second compound 0.00316 µM, first compound 0.00316 µM): 107%
viability, T/C (second compound 0.00316 µM, first compound 0.01 µM): 90.6%
viability, T/C [25]: 92.6%
viability, T/C [26]: 97.2%
viability, T/C [27]: 82.9%
viability, T/C [28]: 75.8%
viability, T/C (second compound 0.01 µM, first compound 0.00316 µM): 105%
viability, T/C (second compound 0.01 µM, first compound 0.01 µM): 80.7%
viability, T/C [29]: 82.5%
viability, T/C [30]: 82.7%
viability, T/C [31]: 79.2%
viability, T/C [32]: 67.6%
viability, T/C (second compound 0.0316 µM, first compound 0.00316 µM): 75.2%
viability, T/C (second compound 0.0316 µM, first compound 0.01 µM): 72.5%
viability, T/C [1]: 76%
viability, T/C [2]: 57.3%
viability, T/C [3]: 59.6%
viability, T/C [4]: 53.3%
viability, T/C (second compound 0.1 µM, first compound 0.00316 µM): 57.4%
viability, T/C (second compound 0.1 µM, first compound 0.01 µM): 52.1%
viability, T/C [7]: 50.2%
viability, T/C [8]: 47.3%
viability, T/C [9]: 43.7%
viability, T/C [10]: 35.2%
viability, T/C (second compound 0.316 µM, first compound 0.00316 µM): 46.5%
viability, T/C (second compound 0.316 µM, first compound 0.01 µM): 33.5%
viability, T/C [13]: 29.2%
viability, T/C [14]: 27.2%
viability, T/C [15]: 22.7%
viability, T/C [16]: 24.1%
viability, T/C (second compound 1 µM, first compound 0.00316 µM): 21.2%
viability, T/C (second compound 1 µM, first compound 0.01 µM): 15.1%
viability, T/C [19]: 18.4%
viability, T/C [20]: 15.5%
viability, T/C [21]: 17.6%
viability, T/C [22]: 19%

IC50 (second compound 0.00316 µM): 6.03 µM
IC50 (second compound 0.01 µM): 6.09 µM
IC50 (second compound 0.0316 µM): 5.1 µM
IC50 (second compound 0.1 µM): 1.77 µM
IC50 (second compound 0.316 µM): < 0.0316 µM
IC50 (second compound 1 µM): < 0.0316 µM
SMILES: CCCS(=O)(=O)Nc1ccc(F)c(C(=O)c2c[nH]c3ncc(-c4ccc(Cl)cc4)cc23)c1F + COc1c(OCCCN2CCOCC2)ccc2c3n(c(=NC(=O)c4cnc(N)nc4)nc12)CCN3
viability, T/C [25]: 98.9%
viability, T/C [26]: 81.6%
viability, T/C [27]: 94.6%
viability, T/C [28]: 108%
viability, T/C (second compound 0.00316 µM, first compound 3.16 µM): 87.5%
viability, T/C (second compound 0.00316 µM, first compound 10 µM): 19.9%
viability, T/C [29]: 96.4%
viability, T/C [30]: 92.6%
viability, T/C [31]: 87.4%
viability, T/C [32]: 85.7%
viability, T/C (second compound 0.01 µM, first compound 3.16 µM): 90.6%
viability, T/C (second compound 0.01 µM, first compound 10 µM): 19.4%
viability, T/C [1]: 71%
viability, T/C [2]: 78.2%
viability, T/C [3]: 72.5%
viability, T/C [4]: 80.2%
viability, T/C [5]: 71.1%
viability, T/C [6]: 19.8%
viability, T/C [7]: 63.5%
viability, T/C [8]: 49.7%
viability, T/C [9]: 66.9%
viability, T/C [10]: 53.4%
viability, T/C [11]: 44.4%
viability, T/C [12]: 12.2%
viability, T/C [13]: 32.3%
viability, T/C [14]: 42.4%
viability, T/C [15]: 35.9%
viability, T/C [16]: 36.7%
viability, T/C [17]: 26%
viability, T/C [18]: 8.03%
viability, T/C [19]: 19.9%
viability, T/C [20]: 22.4%
viability, T/C [21]: 20.2%
viability, T/C [22]: 15.9%
viability, T/C [23]: 14%
viability, T/C [24]: 6.42%
